Data as given in PubChem BioAssay (NCI).
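96-well plates; 48 h exposure; 5 concentrations. Endpoints by linear interpolation between flanking doses. Not reached: highest tested concentration assigned. TGI: concentration producing complete growth inhibition.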

system: OVCAR-4 ovarian; test: NCI-60 cell line screen, 48 h

SMILES	TGI [µM]
O=C(CCc1ccc(O)cc1)NCCc1ccc(O)cc1	> 100
CC(=O)NCc1nc(C#N)c(N)o1	> 100
O=P(O)(O)CN1CCN(CP(=O)(O)O)CCN(CP(=O)(O)O)CCN(CP(=O)(O)O)CC1	> 100
O=C1C(Br)=CC2(C=C1Br)CCN=c1c(O)c3c(c(O)c12)=NC=N3	27.8
O=C1SCC(O)=C1/C=N/Nc1nc2ccccc2o1	> 100
Clc1cccc(Cl)c1C1SCC2=Nc3ccccc3CN21 (stereo not given)	> 100
NC(N)=N/N=C/c1c(Cl)nc2sccn12	46.4
S=C1Cc2c([nH]c3ccccc23)-c2ccccc2N1	> 100

system: MDA-MB-231 breast; test: NCI-60 cell line screen, 48 h

SMILES	TGI [µM]
Cc1nc(N)c(N2CCNCC2)c(=O)[nH]1	> 100
CC1=C2C3=C(C)C(=O)C(C)(C)CC[C@@]3(C)[C@]2(C)CCC(C)(C)C1=O	> 100
Brc1ccc2c(-c3nc(-c4c[nH]c5ccc(Br)cc45)cs3)c[nH]c2c1	18.4
COc1ccc(OC)c2c1C(=O)C(Cl)=C(N1CCN(CCOCCO)CC1)C2=O	27.7
CCC1c2[nH]c3ccccc3c2C[C@H]2C(=O)NC(CCC(=O)OC(C)(C)C)C(=O)N12 (stereo not given in full)	> 100
CCOC(=O)NC(Nc1ccc(S(=O)(=O)Nc2ncccn2)cc1)(C(=O)OCC)C(F)(F)F (stereo not given)	> 100
CCOC(=O)C(Cl)(NC(=O)c1ccc(F)cc1)C(F)(F)F (stereo not given)	> 100
COc1ccccc1N1C(=O)/C(=C\c2cccc(Oc3ccccc3)c2)SC1c1ccccc1 (stereo not given)	> 100
Cc1ccc(S(=O)(=O)OC2C3OC(C)(C)OC3OC2C(c2cc(O)c3c(c2O)C(=O)c2ccccc2C3=O)c2cc(O)c3c(c2O)C(=O)c2ccccc2C3=O)cc1 (stereo not given)	> 10
N#Cc1nc(COCCOCc2ccccc2)oc1N	> 100
CC/C(=N/O)c1ccc(Br)s1	> 100
O=C(CCc1ccc(O)cc1)NCCc1ccc(O)cc1	> 100
CCOC(=O)N/N=C(/N)Cc1ccccc1	> 100
CC(=O)NCc1nc(C#N)c(N)o1	> 100
O=P(O)(O)CN1CCN(CP(=O)(O)O)CCN(CP(=O)(O)O)CCN(CP(=O)(O)O)CC1	> 100
O=C1C(Br)=CC2(C=C1Br)CCN=c1c(O)c3c(c(O)c12)=NC=N3	29.4
O=C1SCC(O)=C1/C=N/Nc1nc2ccccc2o1	> 100
Clc1cccc(Cl)c1C1SCC2=Nc3ccccc3CN21 (stereo not given)	> 100
NC(N)=N/N=C/c1c(Cl)nc2sccn12	> 100
S=C1Cc2c([nH]c3ccccc23)-c2ccccc2N1	> 100

system: KM12 colon; test: NCI-60 cell line screen, 48 h

SMILES	TGI [µM]
Cc1nc(N)c(N2CCNCC2)c(=O)[nH]1	> 100
CC1=C2C3=C(C)C(=O)C(C)(C)CC[C@@]3(C)[C@]2(C)CCC(C)(C)C1=O	> 100
Brc1ccc2c(-c3nc(-c4c[nH]c5ccc(Br)cc45)cs3)c[nH]c2c1	8.19
COc1ccc(OC)c2c1C(=O)C(Cl)=C(N1CCN(CCOCCO)CC1)C2=O	37.2
CCC1c2[nH]c3ccccc3c2C[C@H]2C(=O)NC(CCC(=O)OC(C)(C)C)C(=O)N12 (stereo not given in full)	> 100
CCOC(=O)NC(Nc1ccc(S(=O)(=O)Nc2ncccn2)cc1)(C(=O)OCC)C(F)(F)F (stereo not given)	> 100
CCOC(=O)C(Cl)(NC(=O)c1ccc(F)cc1)C(F)(F)F (stereo not given)	> 100
COc1ccccc1N1C(=O)/C(=C\c2cccc(Oc3ccccc3)c2)SC1c1ccccc1 (stereo not given)	> 100
Cc1ccc(S(=O)(=O)OC2C3OC(C)(C)OC3OC2C(c2cc(O)c3c(c2O)C(=O)c2ccccc2C3=O)c2cc(O)c3c(c2O)C(=O)c2ccccc2C3=O)cc1 (stereo not given)	> 10
N#Cc1nc(COCCOCc2ccccc2)oc1N	> 100
CC/C(=N/O)c1ccc(Br)s1	> 100
O=C(CCc1ccc(O)cc1)NCCc1ccc(O)cc1	> 100
CCOC(=O)N/N=C(/N)Cc1ccccc1	> 100
CC(=O)NCc1nc(C#N)c(N)o1	> 100
O=P(O)(O)CN1CCN(CP(=O)(O)O)CCN(CP(=O)(O)O)CCN(CP(=O)(O)O)CC1	> 100
O=C1C(Br)=CC2(C=C1Br)CCN=c1c(O)c3c(c(O)c12)=NC=N3	30.9
O=C1SCC(O)=C1/C=N/Nc1nc2ccccc2o1	> 100
Clc1cccc(Cl)c1C1SCC2=Nc3ccccc3CN21 (stereo not given)	48.1
NC(N)=N/N=C/c1c(Cl)nc2sccn12	37.4
S=C1Cc2c([nH]c3ccccc23)-c2ccccc2N1	> 100

system: UO-31 renal; test: NCI-60 cell line screen, 48 h

SMILES	TGI [µM]
Cc1nc(N)c(N2CCNCC2)c(=O)[nH]1	> 100
CC1=C2C3=C(C)C(=O)C(C)(C)CC[C@@]3(C)[C@]2(C)CCC(C)(C)C1=O	> 100
Brc1ccc2c(-c3nc(-c4c[nH]c5ccc(Br)cc45)cs3)c[nH]c2c1	13.7
COc1ccc(OC)c2c1C(=O)C(Cl)=C(N1CCN(CCOCCO)CC1)C2=O	29.9
CCC1c2[nH]c3ccccc3c2C[C@H]2C(=O)NC(CCC(=O)OC(C)(C)C)C(=O)N12 (stereo not given in full)	> 100
CCOC(=O)NC(Nc1ccc(S(=O)(=O)Nc2ncccn2)cc1)(C(=O)OCC)C(F)(F)F (stereo not given)	> 100
CCOC(=O)C(Cl)(NC(=O)c1ccc(F)cc1)C(F)(F)F (stereo not given)	> 100
COc1ccccc1N1C(=O)/C(=C\c2cccc(Oc3ccccc3)c2)SC1c1ccccc1 (stereo not given)	> 100
Cc1ccc(S(=O)(=O)OC2C3OC(C)(C)OC3OC2C(c2cc(O)c3c(c2O)C(=O)c2ccccc2C3=O)c2cc(O)c3c(c2O)C(=O)c2ccccc2C3=O)cc1 (stereo not given)	> 10
N#Cc1nc(COCCOCc2ccccc2)oc1N	> 100
CC/C(=N/O)c1ccc(Br)s1	> 100
O=C(CCc1ccc(O)cc1)NCCc1ccc(O)cc1	> 100
CCOC(=O)N/N=C(/N)Cc1ccccc1	> 100
CC(=O)NCc1nc(C#N)c(N)o1	> 100
O=P(O)(O)CN1CCN(CP(=O)(O)O)CCN(CP(=O)(O)O)CCN(CP(=O)(O)O)CC1	> 100
O=C1C(Br)=CC2(C=C1Br)CCN=c1c(O)c3c(c(O)c12)=NC=N3	29.4
Clc1cccc(Cl)c1C1SCC2=Nc3ccccc3CN21 (stereo not given)	43.2
NC(N)=N/N=C/c1c(Cl)nc2sccn12	> 100
S=C1Cc2c([nH]c3ccccc23)-c2ccccc2N1	58.9

system: SK-MEL-2 melanoma; test: NCI-60 cell line screen, 48 h

SMILES	TGI [µM]
Cc1nc(N)c(N2CCNCC2)c(=O)[nH]1	> 100
Brc1ccc2c(-c3nc(-c4c[nH]c5ccc(Br)cc45)cs3)c[nH]c2c1	20.7
CCC1c2[nH]c3ccccc3c2C[C@H]2C(=O)NC(CCC(=O)OC(C)(C)C)C(=O)N12 (stereo not given in full)	> 100
CCOC(=O)NC(Nc1ccc(S(=O)(=O)Nc2ncccn2)cc1)(C(=O)OCC)C(F)(F)F (stereo not given)	> 100
CCOC(=O)C(Cl)(NC(=O)c1ccc(F)cc1)C(F)(F)F (stereo not given)	> 100
COc1ccccc1N1C(=O)/C(=C\c2cccc(Oc3ccccc3)c2)SC1c1ccccc1 (stereo not given)	> 100
Cc1ccc(S(=O)(=O)OC2C3OC(C)(C)OC3OC2C(c2cc(O)c3c(c2O)C(=O)c2ccccc2C3=O)c2cc(O)c3c(c2O)C(=O)c2ccccc2C3=O)cc1 (stereo not given)	> 10
N#Cc1nc(COCCOCc2ccccc2)oc1N	> 100
CC/C(=N/O)c1ccc(Br)s1	> 100
O=C(CCc1ccc(O)cc1)NCCc1ccc(O)cc1	> 100
CCOC(=O)N/N=C(/N)Cc1ccccc1	> 100
CC(=O)NCc1nc(C#N)c(N)o1	> 100
O=P(O)(O)CN1CCN(CP(=O)(O)O)CCN(CP(=O)(O)O)CCN(CP(=O)(O)O)CC1	> 100
O=C1C(Br)=CC2(C=C1Br)CCN=c1c(O)c3c(c(O)c12)=NC=N3	21.3
O=C1SCC(O)=C1/C=N/Nc1nc2ccccc2o1	> 100

system: EKVX NSCLC; test: NCI-60 cell line screen, 48 h

SMILES	TGI [µM]
Cc1nc(N)c(N2CCNCC2)c(=O)[nH]1	> 100
CC1=C2C3=C(C)C(=O)C(C)(C)CC[C@@]3(C)[C@]2(C)CCC(C)(C)C1=O	> 100
Brc1ccc2c(-c3nc(-c4c[nH]c5ccc(Br)cc45)cs3)c[nH]c2c1	6.98
COc1ccc(OC)c2c1C(=O)C(Cl)=C(N1CCN(CCOCCO)CC1)C2=O	35.5
CCC1c2[nH]c3ccccc3c2C[C@H]2C(=O)NC(CCC(=O)OC(C)(C)C)C(=O)N12 (stereo not given in full)	> 100
CCOC(=O)NC(Nc1ccc(S(=O)(=O)Nc2ncccn2)cc1)(C(=O)OCC)C(F)(F)F (stereo not given)	> 100
CCOC(=O)C(Cl)(NC(=O)c1ccc(F)cc1)C(F)(F)F (stereo not given)	> 100
COc1ccccc1N1C(=O)/C(=C\c2cccc(Oc3ccccc3)c2)SC1c1ccccc1 (stereo not given)	> 100
